Reference: BindingDB's records for doi:10.1016/j.bmcl.2009.06.075 (Pfizer, 2009)
pIC50: −log10 of the molar value.

Experiment: Antagonist activity at human P2Y12 receptor assessed as inhibition of ADP-induced platelet-rich plasma aggregation by turbidimetric method

SMILES | pIC50
CCOC(=O)N1CCN(C(=O)[C@H](CCC(=O)O)NC(=O)c2cc(OCCN)cc(-c3ccccc3)n2)CC1 [(4S)4-({[4-(2-Aminoethoxy)6-phenylpyridin-2-yl]carbonyl}-amino)5-[4-(ethoxycarbonyl)iperazin-1-yl]-5-oxopentanoicAcid] | 5.12
CCCCCOC(=O)N1CCN(C(=O)[C@H](CCC(=O)O)NC(=O)c2cc(OCCO)cc(-c3ccccc3)n2)CC1 [(4S)4-({[4-(2-Hydroxyethoxy)6-phenylpyridin-2-yl]carbonyl}-amino)5-oxo-5-{4-[(pentyloxy)carbonyl]piperazin-1-yl}pentanoicAcid] | 4.94
CCCCCOC(=O)N1CCN(C(=O)[C@H](CCC(=O)O)NC(=O)c2cc(OCCOC)cc(-c3ccccc3)n2)CC1 [(4S)4-({[4-(2-Methoxyethoxy)6-phenylpyridin-2-yl]carbonyl}amino)5-oxo-5-{4-[(pentyloxy)carbonyl]piperazin-1-yl}pentanoic Acid] | 5.37
CCCCCOC(=O)N1CCN(C(=O)[C@H](CCC(=O)O)NC(=O)c2cc(N3CCC(CN)CC3)cc(-c3ccccc3)n2)CC1 [(4S)4-[({4-[4-(Aminomethyl)piperidin-1-yl]-6-phenylpyridin-2-yl}carbonyl)amino]-5-oxo-5-{4-[(pentyloxy)carbonyl]piperazin-1-yl}pentanoic Acid] | 6.11
CCCCCOC(=O)N1CCN(C(=O)[C@H](CCC(=O)O)NC(=O)c2cc(N3CCC(COC)CC3)cc(-c3ccccc3)n2)CC1 [(4S)4-[({4-[4-(Methoxymethyl)piperidin-1-yl]-6-phenylpyridin-2-yl}carbonyl)amino]-5-oxo-5-{4-[(pentyloxy)carbonyl]piperazin-1-yl}pentanoic Acid] | 5.41
CCCCOc1cc(C(=O)N[C@@H](CCC(=O)O)C(=O)N2CCN(C(=O)OCC)CC2)nc(-c2ccccc2)c1 [(4S)4-{[(4-Butoxy-6-phenylpyridin-2-yl)carbonyl]amino}-5-[4-(ethoxycarbonyl)iperazin-1-yl]-5-oxopentanoic Acid] | 4.47
CCCCCOC(=O)N1CCN(C(=O)[C@H](CCC(=O)O)NC(=O)c2cc(OCCCC)cc(-c3ccccc3)n2)CC1 [(4S)4-{[(4-Butoxy-6-phenylpyridin-2-yl)carbonyl]amino}-5-oxo-5-{4-[(pentyloxy)carbonyl]piperazin-1-yl}pentanoic Acid] | 4.55
CCCOC(=O)N1CCN(C(=O)[C@H](CCC(=O)O)NC(=O)c2cccc(-c3ccccc3)n2)CC1 [(4S)5-Oxo-4-{[(6-phenylpyridin-2-yl)carbonyl]amino}-5-[4-(propoxycarbonyl)iperazin-1-yl]pentanoic Acid] | 4.21
CCCCCOC(=O)N1CCN(C(=O)[C@H](CCC(=O)O)NC(=O)c2cc(OC3CCNCC3)cc(-c3ccccc3)n2)CC1 [(4S)5-Oxo-5-{4-[(pentyloxy)carbonyl]piperazin-1-yl}-4-({[6-phenyl-4-(piperidin-4-yloxy)yridin-2-yl]carbonyl}amino)entanoicAcid] | 6.26
Cc1cccc(N2CCN(C(=O)[C@H](CCC(=O)O)NC(=O)c3cccc(-c4ccccc4)n3)CC2)c1 [(4S)5-[4-(3-Methylphenyl)piperazin-1-yl]-5-oxo-4-{[(6-phenylpyridin-2-yl)carbonyl]amino}pentanoicAcid] | < 4.00
CCCCOC(=O)N1CCN(C(=O)[C@H](CCC(=O)O)NC(=O)c2cc(OCCOC)cc(-c3ccccc3)n2)CC1 [(4S)5-[4-(Butoxycarbonyl)iperazin-1-yl]-4-({[4-(2-methoxyethoxy)6-phenylpyridin-2-yl]carbonyl}amino)5-oxopentanoicAcid] | 5.36
CCCCOC(=O)N1CCN(C(=O)[C@H](CCC(=O)O)NC(=O)c2cc(OCCCC)cc(-c3ccccc3)n2)CC1 [(4S)5-[4-(Butoxycarbonyl)iperazin-1-yl]-4-{[(4-butoxy-6-phenylpyridin-2-yl)carbonyl]amino}-5-oxopentanoic Acid] | 4.57
CCOC(=O)N1CCN(C(=O)[C@H](CCC(=O)O)NC(=O)c2cc(OCCO)cc(-c3ccccc3)n2)CC1 [(4S)5-[4-(Ethoxycarbonyl)iperazin-1-yl]-4-({[4-(2-hydroxyethoxy)6-phenylpyridin-2-yl]carbonyl}amino)5-oxopentanoicAcid] | 5.12
CCOC(=O)N1CCN(C(=O)[C@H](CCC(=O)O)NC(=O)c2cc(OCCCO)cc(-c3ccccc3)n2)CC1 [(4S)5-[4-(Ethoxycarbonyl)iperazin-1-yl]-4-({[4-(3-hydroxypropoxy)6-phenylpyridin-2-yl]carbonyl}amino)5-oxopentanoic Acid] | 5.05
CCOC(=O)N1CCN(C(=O)[C@H](CCC(=O)O)NC(=O)c2cc(N3CCC(O)CC3)cc(-c3ccccc3)n2)CC1 [(4S)5-[4-(Ethoxycarbonyl)piperazin-1-yl]-4-({[4-(4-hydroxypiperidin-1-yl)6-phenylpyridin-2-yl]carbonyl}amino)5-oxopentanoicAcid] | 5.01
CCOC(=O)N1CCN(C(=O)[C@H](CCC(=O)O)NC(=O)c2cc(NC)cc(-c3ccccc3)n2)CC1 [(4S)5-[4-(Ethoxycarbonyl)piperazin-1-yl]-4-({[4-(methylamino)6-phenylpyridin-2-yl]carbonyl}amino)5-oxopentanoic Acid] | 4.35

SMILES | pIC50
CCOC(=O)N1CCN(C(=O)[C@H](CCC(=O)O)NC(=O)c2cc(N3CCC(COC)CC3)cc(-c3ccccc3)n2)CC1 [(4S)5-[4-(Ethoxycarbonyl)piperazin-1-yl]-4-[({4-[4-(methoxymethyl)piperidin-1-yl]-6-phenylpyridin-2-yl}carbonyl)amino]-5-oxopentanoic Acid] | 5.00
CCOC(=O)N1CCN(C(=O)[C@H](CCC(=O)O)NC(=O)c2cc(N3CCC(N4CCCC4)CC3)cc(-c3ccccc3)n2)CC1 [(4S)5-[4-(Ethoxycarbonyl)piperazin-1-yl]-5-oxo-4-({[6-phenyl-4-(4-pyrrolidin-1-ylpiperidin-1-yl)pyridin-2-yl]carbonyl}amino)pentanoic Acid] | 5.70
CCCCCCCCOC(=O)N1CCN(C(=O)[C@H](CCC(=O)O)NC(=O)c2cccc(-c3ccccc3)n2)CC1 [(4S)5-{4-[(Octyloxy)carbonyl]piperazin-1-yl}-5-oxo-4-{[(6-phenylpyridin-2-yl)carbonyl]amino}pentanoic Acid] | < 4.00
CCOC(=O)N1CCN(C(=O)[C@H](CCC(=O)O)NC(=O)c2cc(OC(CC)C(=O)N(CC)CC)cc(-c3ccccc3)n2)CC1 (stereo partly drawn) [(4S)-4-(4-(1-(diethylamino)-1-oxobutan-2-yloxy)-6-phenylpicolinamido)-5-(4-(ethoxycarbonyl)piperazin-1-yl)-5-oxopentanoic acid] | 5.52
Cc1cccc(N2CCN(C(=O)[C@H](CCC(=O)O)NC(=O)c3cc(-c4ccccc4)cc(-c4ccccc4)n3)CC2)c1 [(S)-4-(4,6-diphenylpicolinamido)-5-oxo-5-(4-m-tolylpiperazin-1-yl)pentanoic acid] | < 4.00
CCOC(=O)N1CCN(C(=O)[C@H](CCC(=O)O)NC(=O)c2cc(NCCN(C)C)cc(-c3ccccc3)n2)CC1 [(S)-4-(4-(2-(dimethylamino)ethylamino)-6-phenylpicolinamido)-5-(4-(ethoxycarbonyl)piperazin-1-yl)-5-oxopentanoic acid] | 4.44
CC(C)OC(=O)N1CCN(C(=O)[C@H](CCC(=O)O)NC(=O)c2cc(OCCO)cc(-c3ccccc3)n2)CC1 [(S)-4-(4-(2-hydroxyethoxy)-6-phenylpicolinamido)-5-(4-(isopropoxycarbonyl)piperazin-1-yl)-5-oxopentanoic acid] | 4.59
CCOC(=O)N1CCN(C(=O)[C@H](CCC(=O)O)NC(=O)c2cc(OCCCN)cc(-c3ccccc3)n2)CC1 [(S)-4-(4-(3-aminopropoxy)-6-phenylpicolinamido)-5-(4-(ethoxycarbonyl)piperazin-1-yl)-5-oxopentanoic acid] | 5.42
CCOC(=O)N1CCN(C(=O)[C@H](CCC(=O)O)NC(=O)c2cc(N3CCN(CCN(C)C)CC3)cc(-c3ccccc3)n2)CC1 [(S)-4-(4-(4-(2-(dimethylamino)ethyl)piperazin-1-yl)-6-phenylpicolinamido)-5-(4-(ethoxycarbonyl)piperazin-1-yl)-5-oxopentanoic acid] | 5.64
NCC1CCN(c2cc(C(=O)N[C@@H](CCC(=O)O)C(=O)N3CCN(C(=O)OCCC4CCCC4)CC3)nc(-c3ccccc3)c2)CC1 [(S)-4-(4-(4-(aminomethyl)piperidin-1-yl)-6-phenylpicolinamido)-5-(4-((2-cyclopentylethoxy)carbonyl)piperazin-1-yl)-5-oxopentanoic acid] | 4.85
CCOC(=O)N1CCN(C(=O)[C@H](CCC(=O)O)NC(=O)c2cc(N3CCC(CN)CC3)cc(-c3ccccc3)n2)CC1 [(S)-4-(4-(4-(aminomethyl)piperidin-1-yl)-6-phenylpicolinamido)-5-(4-(ethoxycarbonyl)piperazin-1-yl)-5-oxopentanoic acid] | 5.48
CCCCCCOC(=O)N1CCN(C(=O)[C@H](CCC(=O)O)NC(=O)c2cc(N3CCC(CN)CC3)cc(-c3ccccc3)n2)CC1 [(S)-4-(4-(4-(aminomethyl)piperidin-1-yl)-6-phenylpicolinamido)-5-(4-(hexyloxycarbonyl)piperazin-1-yl)-5-oxopentanoic acid] | 5.80
CCOC(=O)N1CCN(C(=O)[C@H](CCC(=O)O)NC(=O)c2cc(N3CCC(N)CC3)cc(-c3ccccc3)n2)CC1 [(S)-4-(4-(4-aminopiperidin-1-yl)-6-phenylpicolinamido)-5-(4-(ethoxycarbonyl)piperazin-1-yl)-5-oxopentanoic acid] | 5.55
CCCCCOC(=O)N1CCN(C(=O)[C@H](CCC(=O)O)NC(=O)c2cc(N3CCC(O)CC3)cc(-c3ccccc3)n2)CC1 [(S)-4-(4-(4-hydroxypiperidin-1-yl)-6-phenylpicolinamido)-5-oxo-5-(4-(pentyloxycarbonyl)piperazin-1-yl)pentanoic acid] | 5.62
CCOC(=O)N1CCN(C(=O)[C@H](CCC(=O)O)NC(=O)c2cc(NCc3ccccc3)cc(-c3ccccc3)n2)CC1 [(S)-4-(4-(benzylamino)-6-phenylpicolinamido)-5-(4-(ethoxycarbonyl)piperazin-1-yl)-5-oxopentanoic acid] | 4.09
CCOC(=O)N1CCN(C(=O)[C@H](CCC(=O)O)NC(=O)c2cc(OCc3ccccc3)cc(-c3ccccc3)n2)CC1 [(S)-4-(4-(benzyloxy)-6-phenylpicolinamido)-5-(4-(ethoxycarbonyl)piperazin-1-yl)-5-oxopentanoic acid] | 4.51
